Data as given in EP4610269A1, “UROKINASE PLASMINOGEN ACTIVATOR SURFACE RECEPTOR (UPAR) LIGANDS FOR DIAGNOSTIC OR THERAPEUTIC USE” (3B Pharmaceuticals GmbH, priority 2024, dated 2025).
*1 amine or outer side, *2 acyl side, *3 side chain or, on linkers, in order; H or OH if unused. Where a SMILES comes first, the peptide text is derived from it. Bridges are numbered along the chain shown (N, C = ends). [ ]: non-standard residue; d: D form. The star is where a group is joined. DOTA = O=C(O)CN1CCN(CC(=O)O)CCN(CC(=O)*)CCN(CC(=O)O)CC1; Hyp = O=C(O)[C@@H]1C[C@@H](O)CN1; 3Pal = N[C@@H](Cc1cccnc1)C(=O)O; Pentanoyl(4-Me) = CC(C)CCC(=O)*; Cit = NC(=O)NCCC[C@H](N)C(=O)O; Suc = O=C(CCC(=O)[*:2])[*:1]; Nva = CCC[C@H](N)C(=O)O; Pentanoyl = CCCCC(=O)*; AEEA = NCCOCCOCC(=O)O

How the values were obtained:
[1] = target: T1, Recombinant soluble human NEP (Homo sapiens, UniProt P08473); experiment: Proteolytic stability assay against NEP; format: in vitro ADME; details: recombinant soluble human NEP, human NEP 100 ng/mL, compound 10 µM, 37°C, LC-MS quantification, read-out: % intact compound remaining after 24h incubation
T1 construct: Recombinant soluble human NEP; purchased BioTechne, Wiesbaden, Germany
Procedure: To assess the stability of compounds against NEP, the compounds were subjected to an in vitro assay based on the protocol described by Edelson et al. (Edelson, Makhlina et al. 2013).
Recombinant soluble human NEP (BioTechne, Wiesbaden, Germany) at a concentration of 100 ng/mL was mixed with the compound (10 µM) and a stable internal standard (10 µM) and incubated at 37°C. After several time points, samples were taken and analyzed with LC-MS.
The determination of the analyte in the clean sample solutions was performed on an Agilent 1290 UHPLC system coupled to an Agilent 6530 Q-TOF mass spectrometer. The chromatographic separation was carried out on a Phenomenex BioZen XB-C18 HPLC column (50 × 2 mm, 1.7 µm particle size) with gradient elution using a mixture of 0.1% formic acid in water as eluent A and acetonitrile as eluent B (2% B to 41% in 7 min, 800 µl/min, 40°C). Mass spectrometric detection was performed in positive ion ESI mode by scanning the mass range from m/z 50 to 3000 with a sampling rate of 2 / sec.
(§1) From the mass spectrometric raw data the ion currents for the double or triple charged monoisotopic signal was extracted for both, the compound and the internal standard.
(§2) Quantitation was performed by external matrix calibration with internal standard using the integrated analyte signals.
The activity of NEP was examined using a commercially available chromogenic substrate of NEP.
The result is stated as "% intact compound remaining after 24 h incubation" and means that from the amount of material at the start of the experiment the stated percentage is detected as unchanged material at the end of the experiment by LC-MS quantification. Since all compounds are more than 50% intact after 24 h they are considered as stable enough for diagnostic and therapeutic applications. Table 14: Results of the NEP stability assay

[2] = Plasma stability assay (mouse plasma); format: in vitro ADME; details: mouse plasma (sodium citrate 3.7%), 37°C, LC-MS quantification, read-out: % intact compound remaining after 6h incubation Mouse plasma
Procedure: In order to determine the stability of selected compounds of the invention in human and mouse plasma, a plasma stability assay was carried out. Such plasma stability assay measures degradation of compounds of the present invention in blood plasma. This is an important characteristic of a compound as compounds, with the exception of pro-drugs, which rapidly degrade in plasma, generally show poor in vivo efficacy. […] The stability is sufficient for the diagnostic, therapeutic and theragnostic use of these compounds according to the present invention.
The plasma stability samples were prepared by spiking 50 µl plasma aliquots (all sodium citrate 3.7%) with 1 µl of a 0.5 mM compound stock solution in DMSO. After vortexing the samples were incubated in a Thermomixer at 37°C for 0 and 6 hours. After incubation the samples were stored on ice until further treatment. All samples were prepared in duplicates.
A suitable internal standard was added to each sample (1 µl of a 0.5 mM stock solution in DMSO). Protein precipitation was performed using two different methods depending on the compound conditions as indicated in Table 13. • A) 250 µl of acetonitrile containing 1% trifluoroacetic acid was added. After incubation at room temperature for 30 min the precipitate was separated by centrifugation and 150 µl of the supernatant was diluted with 150 µl of 1% aqueous formic acid. • B) 150 µl of a zinc sulphate precipitation agent containing 78% 0.1 M zinc sulphate and 22% acetonitrile was added. After incubation at room temperature for 30 min the precipitate was separated by centrifugation. To 100 µl of the supernatant 10 µl of 1% formic acid was added followed by further incubation at 60°C for 10 min to complete the formation of the zinc chelate, if the compound contains a free DOTA moiety.
The determination of the analyte in the clean sample solutions was performed on an Agilent 1290 UHPLC system coupled to an Agilent 6530 Q-TOF mass spectrometer. The chromatographic separation was carried out on a Phenomenex BioZen XB-C18 HPLC column (50 x 2 mm, 1.7 µm particle size).
Two different elution gradients were applied using a mixture of 0.1% formic acid in water as eluent A and acetonitrile as eluent B: • A) 2% B to 41% in 7 min, 800 µl/min, 40°C. • B) 5% B to 50% B in 6 min, 800 µL/min, 40°C.
Mass spectrometric detection was performed in positive ion ESI mode by scanning the mass range from m/z 50 to 3000 with a sampling rate of 2 / sec.
as §1, §2
Additionally, recovery was determined by spiking a pure plasma sample that only contained the internal standard after treatment with a certain amount of the compound.
Carry-over was evaluated by analysis of a blank sample (20% acetonitrile) after the highest calibration sample.
The result is stated as "% intact compound remaining after 6 h incubation" and means that from the amount of material at the start of the experiment the stated percentage is detected as unchanged material at the end of the experiment by LC-MS quantification. Since all compounds are more than 50% intact after 6 h they are considered as stable enough for diagnostic and therapeutic applications. Table 13: Results of the plasma stability assay

T1 sequence (P08473 52-750 limits assumed): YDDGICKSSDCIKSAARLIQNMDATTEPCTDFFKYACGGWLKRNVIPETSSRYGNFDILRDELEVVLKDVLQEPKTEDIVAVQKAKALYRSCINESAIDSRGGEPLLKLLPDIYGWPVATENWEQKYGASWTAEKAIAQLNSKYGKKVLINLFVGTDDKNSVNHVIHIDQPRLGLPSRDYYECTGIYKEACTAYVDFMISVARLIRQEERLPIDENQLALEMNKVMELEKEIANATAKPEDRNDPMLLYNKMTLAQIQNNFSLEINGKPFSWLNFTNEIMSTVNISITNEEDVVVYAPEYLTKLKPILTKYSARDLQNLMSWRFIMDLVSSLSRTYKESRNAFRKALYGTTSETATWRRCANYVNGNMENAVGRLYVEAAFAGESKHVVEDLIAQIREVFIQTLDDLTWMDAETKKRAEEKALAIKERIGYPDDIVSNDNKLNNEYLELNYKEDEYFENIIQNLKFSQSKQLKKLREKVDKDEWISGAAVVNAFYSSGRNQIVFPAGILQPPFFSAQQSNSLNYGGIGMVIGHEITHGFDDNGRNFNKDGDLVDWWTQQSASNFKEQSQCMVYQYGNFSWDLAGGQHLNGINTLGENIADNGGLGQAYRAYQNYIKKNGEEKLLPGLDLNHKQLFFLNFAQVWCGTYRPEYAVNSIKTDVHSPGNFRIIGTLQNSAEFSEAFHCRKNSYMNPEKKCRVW

## CC[C@H](C)[C@@H]1NC(=O)[C@@H](C)NC(=O)[C@@H]2CCCN2C(=O)[C@H](Cc2ccccc2)NC(=O)[C@H](Cc2ccc(O)cc2)NC(=O)[C@H](CC(=O)O)NC(=O)[C@H](CCCNC(N)=O)NC(=O)[C@@H](NC(=O)CCC(C)C)CSSC[C@@H](C(N)=O)NC(=O)[C@H](CC(C)C)NC1=O [UPAR-434, iHex-[Cys-Cit-Asp-Tyr-Phe-Pro-ala-Ile-Leu-Cys]-NH2] ({Pentanoyl(4-Me)}-C[Cit]DYFP[dA]ILC-NH2; disulfide 1-10)
[1]
  remaining at 24 h, 10 µM: > 95%
[2]
  remaining at 6 h, 9.8 µM: 90%

## CC[C@H](C)[C@@H]1NC(=O)[C@@H](C)NC(=O)[C@@H]2CCCN2C(=O)[C@H](Cc2ccccc2)NC(=O)[C@H](Cc2ccc(O)cc2)NC(=O)[C@H](CCC(N)=O)NC(=O)[C@H](CCCNC(N)=O)NC(=O)[C@@H](NC(=O)[C@H](CC(C)C)NC(=O)COCCOCCNC(=O)CN2CCN(CC(=O)O)CCN(CC(=O)O)CCN(CC(=O)O)CC2)CSSC[C@@H](C(N)=O)NC(=O)[C@H](CC(C)C)NC1=O [UPAR-245, DOTA-O2Oc-Leu-[Cys-Cit-Gln-Tyr-Phe-Pro-ala-Ile-Leu-Cys]-NH2] ({DOTA-AEEA}-LC[Cit]QYFP[dA]ILC-NH2; disulfide 2-11)
[1]
  remaining at 24 h, 10 µM: 72%
[2]
  remaining at 6 h, 9.8 µM: 74%

## CCCCC(=O)N[C@H]1CSSC[C@@H](C(N)=O)NC(=O)[C@H](CCC)NC(=O)[C@H]([C@@H](C)CC)NC(=O)[C@@H]2C[C@@H](O)CN2C(=O)[C@@H]2C[C@@H](O)CN2C(=O)[C@H](Cc2ccccc2)NC(=O)[C@H](Cc2ccc(O)cc2)NC(=O)[C@H](CCCCNC(=O)CN2CCN(CC(=O)O)CCN(CC(=O)O)CCN(CC(=O)O)CC2)NC(=O)[C@H](CCCNC(N)=O)NC1=O [UPAR-403, Pent-[Cys-Cit-Lys(DOTA)-Tyr-Phe-Hyp-Hyp-Ile-Nva-Cys]-NH2] (Pentanoyl-C[Cit]K(DOTA)YF[Hyp][Hyp]I[Nva]C-NH2; disulfide 1-10)
[1]
  remaining at 24 h, 10 µM: 95%
[2]
  remaining at 6 h, 9.8 µM: 87%

## CCCCC(=O)N[C@H]1CSSC[C@@H](C(N)=O)NC(=O)[C@H](CCC)NC(=O)[C@H]([C@@H](C)CC)NC(=O)[C@@H]2C[C@@H](O)CN2C(=O)[C@@H]2CCCN2C(=O)[C@H](Cc2ccccc2)NC(=O)[C@H](Cc2cccnc2)NC(=O)[C@H](CCCCNC(=O)CN2CCN(CC(=O)O)CCN(CC(=O)O)CCN(CC(=O)O)CC2)NC(=O)[C@H](CCCNC(N)=O)NC1=O [UPAR-138, Pent-[Cys-Cit-Lys(DOTA)-Mpa-Phe-Pro-Hyp-Ile-Nva-Cys]-NH2] (Pentanoyl-C[Cit]K(DOTA)[3Pal]FP[Hyp]I[Nva]C-NH2; disulfide 1-10)
[1]
  remaining at 24 h, 10 µM: 94%
[2]
  remaining at 6 h, 9.8 µM: 91%

## CC[C@H](C)[C@@H]1NC(=O)[C@@H](C)NC(=O)[C@@H]2CCCN2C(=O)[C@H](Cc2ccccc2)NC(=O)[C@H](Cc2ccc(O)cc2)NC(=O)[C@H](CCCCNC(=O)CN2CCN(CC(=O)O)CCN(CC(=O)O)CCN(CC(=O)O)CC2)NC(=O)[C@H](CCCNC(N)=O)NC(=O)[C@@H](NC(=O)[C@H](CC(C)C)NC(=O)[C@H](CC(=O)O)NC(C)=O)CSSC[C@@H](C(N)=O)NC(=O)[C@H](CC(C)C)NC1=O [UPAR-189, Ac-Asp-Leu-[Cys-Cit-Lys(DOTA)-Tyr-Phe-Pro-ala-Ile-Leu-Cys]-NH2] (Ac-DLC[Cit]K(DOTA)YFP[dA]ILC-NH2; disulfide 3-12)
[1]
  remaining at 24 h, 10 µM: 94%
[2]
  remaining at 6 h, 9.8 µM: > 95%

## CC[C@H](C)[C@@H]1NC(=O)[C@@H]2C[C@@H](O)CN2C(=O)[C@@H]2CCCN2C(=O)[C@H](Cc2ccccc2)NC(=O)[C@H](Cc2ccc(O)cc2)NC(=O)[C@H](CCC(N)=O)NC(=O)[C@H](CCCNC(N)=O)NC(=O)[C@@H](NC(=O)CCC(C)C)CSSC[C@@H](C(N)=O)NC(=O)[C@H](CC(C)C)NC1=O [UPAR-174, iHex-[Cys-Cit-Gln-Tyr-Phe-Pro-Hyp-Ile-Leu-Cys]-NH2] ({Pentanoyl(4-Me)}-C[Cit]QYFP[Hyp]ILC-NH2; disulfide 1-10)
[1]
  remaining at 24 h, 10 µM: 90%
[2]
  remaining at 6 h, 9.8 µM: 71%

## CC[C@H](C)[C@@H]1NC(=O)[C@@H]2CCCN2C(=O)[C@@H]2CCCN2C(=O)[C@H](Cc2ccccc2)NC(=O)[C@H](Cc2ccc(O)cc2)NC(=O)[C@H](CCCCNC(=O)CN2CCN(CC(=O)O)CCN(CC(=O)O)CCN(CC(=O)O)CC2)NC(=O)[C@H](CCCNC(N)=O)NC(=O)[C@@H](NC(=O)CCC(C)C)CSSC[C@@H](C(N)=O)NC(=O)[C@H](CC(C)C)NC1=O [UPAR-382, iHex-[Cys-Cit-Lys(DOTA)-Tyr-Phe-Pro-Pro-Ile-Leu-Cys]-NHz] ({Pentanoyl(4-Me)}-C[Cit]K(DOTA)YFPPILC-NH2; disulfide 1-10)
[1]
  remaining at 24 h, 10 µM: > 95%
[2]
  remaining at 6 h, 9.8 µM: 78%

## CCCCC(=O)N[C@H]1CSSC[C@@H](C(N)=O)NC(=O)[C@H](CCC)NC(=O)[C@H]([C@@H](C)CC)NC(=O)[C@@H]2C[C@@H](O)CN2C(=O)[C@@H]2CCCN2C(=O)[C@H](Cc2ccccc2)NC(=O)[C@H](Cc2ccc(O)cc2)NC(=O)[C@H](CCCCNC(=O)CN2CCN(CC(=O)O)CCN(CC(=O)O)CCN(CC(=O)O)CC2)NC(=O)[C@H](CCCNC(N)=O)NC1=O [UPAR-261, Pent-[Cys-Cit-Lys(DOTA)-Tyr-Phe-Pro-Hyp-Ile-Nva-Cys]-NH2] (Pentanoyl-C[Cit]K(DOTA)YFP[Hyp]I[Nva]C-NH2; disulfide 1-10)
[1]
  remaining at 24 h, 10 µM: 86%
[2]
  remaining at 6 h, 9.8 µM: 82%

## CCC[C@H](NC(=O)CCC(=O)O)C(=O)N[C@H]1CSSC[C@@H](C(N)=O)NC(=O)[C@H](CCC)NC(=O)[C@H]([C@@H](C)CC)NC(=O)[C@@H]2C[C@@H](O)CN2C(=O)[C@@H]2CCCN2C(=O)[C@H](Cc2ccccc2)NC(=O)[C@H](Cc2ccc(O)cc2)NC(=O)[C@H](CCCCNC(=O)CN2CCN(CC(=O)O)CCN(CC(=O)O)CCN(CC(=O)O)CC2)NC(=O)[C@H](CCCNC(N)=O)NC1=O [UPAR-293, HO-Succinyl-Nva-[Cys-Cit-Lys(DOTA)-Tyr-Phe-Pro-Hyp-Ile-Nva-Cys]-NH2] (Suc-[Nva]C[Cit]K(DOTA)YFP[Hyp]I[Nva]C-NH2; disulfide 2-11)
[1]
  remaining at 24 h, 10 µM: > 95%
[2]
  remaining at 6 h, 9.8 µM: > 95%

## CC[C@H](C)[C@@H]1NC(=O)[C@@H](CCCNC(=N)N)NC(=O)[C@@H]2CCCN2C(=O)[C@H](Cc2ccccc2)NC(=O)[C@H](Cc2ccc(O)cc2)NC(=O)[C@H](CCCCNC(=O)CN2CCN(CC(=O)O)CCN(CC(=O)O)CCN(CC(=O)O)CC2)NC(=O)[C@H](CCCNC(N)=O)NC(=O)[C@@H](NC(=O)[C@H](CC(C)C)NC(=O)[C@H](CC(=O)O)NC(C)=O)CSSC[C@@H](C(N)=O)NC(=O)[C@H](CC(C)C)NC1=O [UPAR-306, Ac-Asp-Leu-[Cys-Cit-Lys(DOTA)-Tyr-Phe-Pro-arg-Ile-Leu-Cys]-NH2] (Ac-DLC[Cit]K(DOTA)YFP[dR]ILC-NH2; disulfide 3-12)
[1]
  remaining at 24 h, 10 µM: 88%
[2]
  remaining at 6 h, 9.8 µM: 95%
